Source: publication PMC3543423, “Structure Prediction and Validation of the ERK8 Kinase Domain” (PLoS ONE, 2013)

Biological target: T1, ERK8 (Homo sapiens, UniProt Q8TD08)
T1 construct: gene MAPK15; full-length GST-ERK8 (baculovirus-expressed, GST-ERK8Bac)
T1 sequence (Q8TD08 1-544): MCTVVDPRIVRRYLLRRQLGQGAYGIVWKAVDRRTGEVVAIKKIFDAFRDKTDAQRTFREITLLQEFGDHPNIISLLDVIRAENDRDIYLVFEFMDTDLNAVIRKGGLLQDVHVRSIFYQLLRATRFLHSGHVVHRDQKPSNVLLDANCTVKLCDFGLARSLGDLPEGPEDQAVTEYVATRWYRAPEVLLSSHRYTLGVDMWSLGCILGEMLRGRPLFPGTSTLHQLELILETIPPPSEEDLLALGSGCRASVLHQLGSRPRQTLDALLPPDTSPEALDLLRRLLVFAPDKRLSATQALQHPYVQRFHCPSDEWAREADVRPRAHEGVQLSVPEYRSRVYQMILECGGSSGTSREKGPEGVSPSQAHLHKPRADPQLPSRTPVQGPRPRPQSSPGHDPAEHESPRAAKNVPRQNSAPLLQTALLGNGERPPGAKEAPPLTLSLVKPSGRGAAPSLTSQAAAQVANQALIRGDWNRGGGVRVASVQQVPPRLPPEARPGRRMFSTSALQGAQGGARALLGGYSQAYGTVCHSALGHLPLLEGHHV
Assay: radiometric [γ-32P]ATP kinase assay with MBP substrate, dose/response; ATP competition; reduced inhibition of F92I mutant
Assay type: biochemical

SMILES | IC50
CCOC(=O)c1c(C(=O)CSc2nc(-c3ccccc3)cc(-c3ccc(OC)cc3)c2C#N)sc2c1CCCC2 [ITT53] | 27 µM
COc1ccccc1NC(=O)c1cccc(Nc2nc(-c3ccccc3)c3cc(Br)ccc3n2)c1 [ITT57] | 17 µM
